Experimental findings from PMC10377586 (Biomolecules, 2023) are described below.

One series is described as follows: DPPH antioxidant assay. The format is physicochemical. The conditions noted are these: compound at 50 µM. From the text:
The 2,2-diphenyl-1-picrylhydrazyl (DPPH) assay was used to determine the antioxidant properties of selected compounds using ascorbic acid, trolox, and quercetin as references. […] From a structural point of view, 21 and 22 share a common pyrimido[2,1-f]purinedione core with propyl or butyl substituents at the N1- and N3-position. Compounds 11i and 11l, containing hexyl or phenoxyethyl as N7-substituents, were the only structures in the groups of bicyclic xanthine derivatives that lacked antioxidant activity in the DPPH assay.
Antioxidant properties of considered structures were evaluated in DPPH test. The assay utilizes a stable free radical 2,2-diphenyl-1-picrylhydrazyl (DPPH). DPPH has a deep violet color in solution and strong absorption band at 520 nm. The antioxidant activity of the tested compounds was defined by their ability to induce the formation of the reduced form of DPPH. Upon reduction, DPPH color turned pale yellow, which manifested by decreased sample absorption at 520 nm and was measured in conducted experiments using EnSpire microplate reader (PerkinElmer). Antioxidant activity of xanthine derivatives and reference compounds was tested in triplicate at 50 µM concentration and normalized to the activity of reference radical scavenger—quercetin.
Figure 2 Antioxidant properties of xanthine derivatives evaluated in the DPPH test. All compounds were tested at 50 µM concentration. Results were normalized to the antioxidant activity measured for quercetin. ASC, ascorbic acid; TLX, trolox; QCT, quercetin.
A general note: DPPH is a stable violet radical that fades when it is reduced.

The melting point is the temperature, or range, at which the solid turns liquid.

In turn, `CC(C)Cn1c(NCCc2ccc(O)c(O)c2)nc2c1c(=O)n(C)c(=O)n2C` (hydrate or solvate) [Compound 11f, 8-((3,4-Dihydroxyphenethyl)amino)-7-isobutyl-1,3-dimethyl-3,7-dihydro-1H-purine-2,6-dione] gave a melting point of 201 to 203 °C.
On the same count and under the same terms, the result for `Cn1c(=O)c2c(nc(NCCc3ccc(O)c(O)c3)n2Cc2ccccc2)n(C)c1=O` (hydrate or solvate) [Compound 11j, 7-Benzyl-8-((3,4-dihydroxyphenethyl)amino)-1,3-dimethyl-3,7-dihydro-1H-purine-2,6-dione] reads 214 to 216 °C.
Regarding `Cn1c(=O)c2c(nc(NCCc3ccc(O)c(O)c3)n2CCc2ccccc2)n(C)c1=O` (hydrate or solvate) [Compound 11k, 8-((3,4-Dihydroxyphenethyl)amino)-1,3-dimethyl-7-phenethyl-3,7-dihydro-1H-purine-2,6-dione], the melting point was in the range of 180 to 182 °C.
For the compound `O=C1O[C@H]([C@@H](O)CO)C(O)=C1O` [Ascorbic acid, reference compound], in “DPPH antioxidant assay”, the “Antioxidative Activity [% of Quercetin Response at 50 µM ± SD]” value is 78 ± 1 % of Quercetin Response.
On the same count and under the same terms, the result for `Cc1c(C)c2c(c(C)c1O)CCC(C)(C(=O)O)O2` (centres unmarked) [Trolox, reference compound] reads 73 ± 1 % of Quercetin Response.
